Measurements: ChEMBL document CHEMBL1201862, “PubChem BioAssay data set” (2004)
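96-well plates; 48 h exposure; 5 concentrations. Endpoints by linear interpolation between flanking doses. Not reached: highest tested concentration assigned. Abbreviation: GI50, concentration required for 50% inhibition of growth.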 Activity calls are given as the source filed them. Cut-off read from the data, not from the text of the source: active = GI50 up to about 1.1 µM and inactive = higher.

Assays:
Assay in all cases: NCI tumour cell line growth inhibition, 48 h
A498 = test system: A498
Hs-578T = test system: Hs-578T
MOLT-4 = test system: MOLT-4
HT-29 = test system: HT-29
MDA-N = test system: MDA-N
Malme-3M = test system: Malme-3M
MCF7 = test system: MCF7
IGROV-1 = test system: IGROV-1
TK-10 = test system: TK-10
HCC 2998 = test system: HCC 2998
SN12C = test system: SN12C
NCI-H226 = test system: NCI-H226
OVCAR-4 = test system: OVCAR-4
BT-549 = test system: BT-549
MDA-MB-231 = test system: MDA-MB-231
SK-MEL-28 = test system: SK-MEL-28
OVCAR-8 = test system: OVCAR-8
HCT-15 = test system: HCT-15
MDA-MB-435 = test system: MDA-MB-435
SW-620 = test system: SW-620
NCI-H522 = test system: NCI-H522
HL-60 = test system: HL-60
A549 = test system: A549
EKVX = test system: EKVX
CAKI-1 = test system: CAKI-1
OVCAR-3 = test system: OVCAR-3
SK-OV-3 = test system: SK-OV-3
PC-3 = test system: PC-3
DU-145 = test system: DU-145
M14 = test system: M14
HOP-92 = test system: HOP-92
OVCAR-5 = test system: OVCAR-5
HCT-116 = test system: HCT-116
NCI-H460 = test system: NCI-H460
SNB-19 = test system: SNB-19
T47D = test system: T47D
LOX IMVI = test system: LOX IMVI
ACHN = test system: ACHN
NCI/ADR-RES = test system: NCI/ADR-RES
UACC-257 = test system: UACC-257
UACC-62 = test system: UACC-62
SF-295 = test system: SF-295
CCRF-CEM = test system: CCRF-CEM
KM12 = test system: KM12
SK-MEL-5 = test system: SK-MEL-5
786-0 = test system: 786-0
SK-MEL-2 = test system: SK-MEL-2
NCI-H23 = test system: NCI-H23
U-251 = test system: U-251
HOP-62 = test system: HOP-62
RPMI-8226 = test system: RPMI-8226
SF-268 = test system: SF-268
SNB-75 = test system: SNB-75
COLO 205 = test system: COLO 205
SR = test system: SR
SF-539 = test system: SF-539
UO-31 = test system: UO-31
K562 = test system: K562
RXF 393 = test system: RXF 393

With Cc1nc2ccccc2c(=O)n1/N=C/c1ccc(N(C)C)cc1 the GI50 (A498) was > 100 µM (inactive), the GI50 (Hs-578T) was 15.3 µM (inactive) and the GI50 (MOLT-4) was > 100 µM (inactive). The GI50 (HT-29) was > 100 µM (inactive), the GI50 (MDA-N) was > 100 µM (inactive) and the GI50 (Malme-3M) was > 100 µM (inactive). For the same molecule, the GI50 (MCF7) was > 100 µM (inactive), the GI50 (IGROV-1) was > 100 µM (inactive) and the GI50 (TK-10) was > 100 µM (inactive). The GI50 (HCC 2998) was > 100 µM (inactive), the GI50 (SN12C) was > 100 µM (inactive) and the GI50 (NCI-H226) was > 100 µM (inactive). The GI50 (OVCAR-4) was > 100 µM (inactive), the GI50 (BT-549) was 46 µM (inactive) and the GI50 (MDA-MB-231) was 32.9 µM (inactive). For the same molecule, the GI50 (SK-MEL-28) was > 100 µM (inactive), the GI50 (OVCAR-8) was 53.5 µM (inactive) and the GI50 (HCT-15) was greater than 100 µM. For the same molecule, the GI50 (MDA-MB-435) was > 100 µM (inactive), the GI50 (SW-620) was > 100 µM (inactive) and the GI50 (NCI-H522) was 15.6 µM (inactive). The GI50 (HL-60) was > 100 µM (inactive), the GI50 (A549) was > 100 µM (inactive) and the GI50 (EKVX) was > 100 µM (inactive). For the same molecule, the GI50 (CAKI-1) was > 100 µM (inactive), the GI50 (OVCAR-3) was > 100 µM (inactive) and the GI50 (SK-OV-3) was 83.6 µM (inactive). The GI50 (PC-3) was > 100 µM (inactive), the GI50 (DU-145) was > 100 µM (inactive) and the GI50 (M14) was > 100 µM (inactive). The GI50 (HOP-92) was 48.5 µM (inactive), the GI50 (OVCAR-5) was > 100 µM (inactive) and the GI50 (HCT-116) was > 100 µM (inactive). For the same molecule, the GI50 (NCI-H460) was > 100 µM (inactive), the GI50 (SNB-19) was 24.8 µM (inactive) and the GI50 (T47D) was > 100 µM (inactive). The GI50 (LOX IMVI) was > 100 µM (inactive), the GI50 (ACHN) was > 100 µM (inactive) and the GI50 (NCI/ADR-RES) was 86.9 µM (inactive). The GI50 (UACC-257) was > 100 µM (inactive), the GI50 (UACC-62) was 71.8 µM (inactive) and the GI50 (SF-295) was 43.6 µM (inactive). The GI50 (CCRF-CEM) was > 100 µM (inactive), the GI50 (KM12) was > 100 µM (inactive) and the GI50 (SK-MEL-5) was > 100 µM (inactive). The GI50 (786-0) was 71.4 µM (inactive), the GI50 (SK-MEL-2) was > 100 µM (inactive) and the GI50 (NCI-H23) was 78 µM (inactive). For the same molecule, the GI50 (U-251) was 45 µM (inactive), the GI50 (HOP-62) was 34.2 µM (inactive) and the GI50 (RPMI-8226) was 4.24 µM (inactive). The GI50 (SF-268) was 33.7 µM (inactive), the GI50 (SNB-75) was 15.4 µM (inactive) and the GI50 (COLO 205) was > 100 µM (inactive). For the same molecule, the GI50 (SR) was > 100 µM (inactive) and the GI50 (SF-539) was > 100 µM (inactive).

With COc1cc2ccccc2c2cc([N+](=O)[O-])oc12 the GI50 (A498) was 0.177 µM (active), the GI50 (Hs-578T) was 2.28 µM (inactive) and the GI50 (MOLT-4) was 0.0792 µM (active). The GI50 (HT-29) was 0.406 µM (active), the GI50 (MDA-N) was 0.216 µM (active) and the GI50 (Malme-3M) was 0.126 µM (active). For the same molecule, the GI50 (MCF7) was 0.35 µM (active), the GI50 (IGROV-1) was 1.25 µM (inactive) and the GI50 (TK-10) was 0.173 µM (active). For the same molecule, the GI50 (SN12C) was 0.927 µM (active), the GI50 (UO-31) was 0.618 µM (active) and the GI50 (NCI-H226) was 1.11 µM (active). The GI50 (OVCAR-4) was 3.48 µM (inactive), the GI50 (BT-549) was 1.64 µM (inactive) and the GI50 (MDA-MB-231) was 0.655 µM (active). For the same molecule, the GI50 (SK-MEL-28) was 0.261 µM (active), the GI50 (OVCAR-8) was 1.9 µM (inactive) and the GI50 (HCT-15) was 1.03 µM. The GI50 (MDA-MB-435) was 0.214 µM (active), the GI50 (SW-620) was 0.893 µM (active) and the GI50 (NCI-H522) was 0.183 µM (active). The GI50 (HL-60) was 5.26 µM (inactive), the GI50 (A549) was 0.294 µM (active) and the GI50 (EKVX) was 4.19 µM (inactive). For the same molecule, the GI50 (CAKI-1) was 0.48 µM (active), the GI50 (OVCAR-3) was 1.43 µM (inactive) and the GI50 (SK-OV-3) was 0.49 µM (active). For the same molecule, the GI50 (PC-3) was 3.04 µM (inactive), the GI50 (DU-145) was 0.265 µM (active) and the GI50 (M14) was 0.142 µM (active). The GI50 (HOP-92) was 0.78 µM (active), the GI50 (OVCAR-5) was 3.39 µM (inactive) and the GI50 (HCT-116) was 0.249 µM (active). The GI50 (NCI-H460) was 0.183 µM (active), the GI50 (SNB-19) was 0.811 µM (active) and the GI50 (T47D) was 5.36 µM (inactive). The GI50 (LOX IMVI) was 0.314 µM (active), the GI50 (K562) was 0.319 µM (active) and the GI50 (ACHN) was 0.174 µM (active). The GI50 (NCI/ADR-RES) was 1.43 µM (inactive), the GI50 (UACC-257) was 0.179 µM (active) and the GI50 (UACC-62) was 0.809 µM (active). For the same molecule, the GI50 (SF-295) was 1.39 µM (inactive), the GI50 (CCRF-CEM) was 0.26 µM (active) and the GI50 (KM12) was 1.43 µM (inactive). The GI50 (SK-MEL-5) was 0.0948 µM (active), the GI50 (786-0) was 0.374 µM (active) and the GI50 (SK-MEL-2) was 0.197 µM (active). The GI50 (NCI-H23) was 1.2 µM (inactive), the GI50 (U-251) was 1.17 µM (inactive) and the GI50 (HOP-62) was 3.37 µM (inactive). For the same molecule, the GI50 (RPMI-8226) was 0.619 µM (active), the GI50 (SF-268) was 0.537 µM (active) and the GI50 (SNB-75) was 2.62 µM (inactive). For the same molecule, the GI50 (RXF 393) was 0.207 µM (active), the GI50 (COLO 205) was 0.379 µM (active) and the GI50 (SR) was 0.0859 µM (active). For the same molecule, the GI50 (SF-539) was 0.91 µM (active).
